In PubChem BioAssay (NCI):
“And” between values parts separate entries of the source, which are not always exact repeats. Equal entries are not always repeated.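 Values below derive from 48-hour exposures of cells grown in 96-well plates, with endpoints linearly interpolated between the two concentrations bracketing the appropriate inhibition level. GI50 = concentration required for 50% inhibition of growth. The concentration for full growth arrest is given as TGI.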

Key:
Assay in all cases: growth of human tumour cells (NCI), 48 h
[1] = system: SF-539 CNS
[2] = system: SK-MEL-2 melanoma
[3] = system: NCI-H460 lung
[4] = system: SF-268 CNS
[5] = system: RPMI-8226 leukemia
[6] = system: SN12C renal
[7] = system: NCI-H226 lung
[8] = system: HOP-62 NSCLC
[9] = system: KM12 colon
[10] = system: CCRF-CEM leukemia

`CC(C)[C@](O)(C(=O)OCC1=CC[N+]2([O-])CC[C@@H](O)[C@@H]12)[C@H](C)O` (stereo not given in full) was tested, and the TGI [1] was greater than 10000 µM, the TGI [2] was greater than 10000 µM and the TGI [3] was greater than 9540 µM. It also gave a TGI [4] greater than 10000 µM, a TGI [5] greater than 10000 µM and a TGI [6] greater than 10000 µM. The TGI [7] was greater than 10000 µM, the TGI [8] was greater than 3980 µM and the TGI [9] was greater than 10000 µM. It also gave a TGI [10] greater than 10000 µM.

`Clc1nc(Cl)c2ncn(C/C=C/Cn3cnc4c(Cl)nc(Cl)nc43)c2n1` was tested, and the GI50 [1] was 21.3 µM, the TGI [1] was 41 µM and the GI50 [2] was 14.2 µM. For the same compound, the TGI [2] was 29.3 µM, the GI50 [3] was 20 µM and the TGI [3] was 40.7 µM. It also gave a GI50 [4] of 14.6 µM, a TGI [4] of 30.5 µM and a GI50 [5] of 10.4 µM. For the same compound, the TGI [5] was 25.8 µM, the GI50 [6] was 19.7 µM and the TGI [6] was 40.7 µM. It also gave a GI50 [7] of 22.3 µM, a TGI [7] of 42.9 µM and a GI50 [8] of 15.6 µM. For the same compound, the TGI [8] was 32.9 µM, the GI50 [9] was 17.3 µM and the TGI [9] was 33.9 µM. The GI50 [10] was 10.7 µM and the TGI [10] was 25.3 µM.

With `COc1ccc(-c2ccc3ncc4c(c3c2)n(-c2ccc(N3CCNCC3)c(C(F)(F)F)c2)c(=O)n4C)cn1` the GI50 [1] was < 0.011 µM and 0.0132 µM, the TGI [1] was 0.0606 µM and 0.0587 µM and the GI50 [2] was < 0.01 µM and 0.0101 µM. For the same compound, the TGI [2] was 0.0369 µM and 0.044 µM, the GI50 [3] was < 0.01 µM and 0.00389 µM and the TGI [3] was 0.223 µM and 0.141 µM. The GI50 [4] was < 0.01 µM and 0.00867 µM, the TGI [4] was 0.755 µM and 1.22 µM and the GI50 [5] was < 0.01 µM and 0.00374 µM. For the same compound, the TGI [5] was 0.163 µM and 0.0549 µM, the GI50 [6] was < 0.0112 µM and 0.00382 µM and the TGI [6] was 1.56 µM and 0.381 µM. For the same compound, the GI50 [7] was 0.00858 µM, the TGI [7] was 0.116 µM and the GI50 [8] was < 0.01 µM and 0.0119 µM. The TGI [8] was 0.378 µM and 0.428 µM, the GI50 [9] was < 0.01 µM and 0.0117 µM and the TGI [9] was 0.694 µM and 0.406 µM. For the same compound, the GI50 [10] was < 0.01 µM and 0.00664 µM and the TGI [10] was 0.282 µM and 0.144 µM.

`OC(COc1cccc2ccccc12)CN1CCN(c2ccc(Cl)cc2)CC1` (stereo not given) showed a GI50 [1] of 22.6 µM, a TGI [1] of 68.5 µM and a GI50 [2] of 21.7 µM. For the same compound, the TGI [2] was 60.3 µM, the GI50 [3] was 15.7 µM and the TGI [3] was greater than 100 µM. The GI50 [4] was 19.1 µM, the TGI [4] was 45.5 µM and the GI50 [5] was 42.9 µM. It also gave a TGI [5] greater than 100 µM, a GI50 [6] of 51 µM and a TGI [6] greater than 100 µM. The GI50 [7] was 13.8 µM, the TGI [7] was 70.4 µM and the GI50 [8] was 8.53 µM. For the same compound, the TGI [8] was 29.6 µM, the GI50 [9] was 38.3 µM and the TGI [9] was greater than 100 µM. For the same compound, the GI50 [10] was greater than 100 µM and the TGI [10] was greater than 100 µM.

`COc1cc2cn3c4ccc(O)cc4nc(N)c3c2cc1OC` showed a GI50 [1] of 0.2 µM, a TGI [1] of 2.39 µM and a GI50 [2] of 1.89 µM. For the same compound, the TGI [2] was 7.61 µM, the GI50 [3] was 0.289 µM and the TGI [3] was 2.36 µM. For the same compound, the GI50 [4] was 0.149 µM, the TGI [4] was 15.1 µM and the GI50 [5] was 1.25 µM. It also gave a TGI [5] of 8.32 µM, a GI50 [6] of 0.295 µM and a TGI [6] of 13 µM. For the same compound, the GI50 [7] was 0.201 µM, the TGI [7] was 3.54 µM and the GI50 [8] was 0.375 µM. It also gave a TGI [8] of 7.67 µM, a GI50 [9] of 0.885 µM and a TGI [9] of 4.48 µM. The GI50 [10] was 0.181 µM and the TGI [10] was 7.58 µM.

Compound `COc1ccc2[nH]c(-c3ccccc3)c(C=C(C#N)C#N)c2c1` has a GI50 [1] of 2.94 µM, a TGI [1] of 22 µM and a GI50 [2] of 5.87 µM. The TGI [2] was greater than 100 µM, the GI50 [3] was 3.56 µM and the TGI [3] was greater than 100 µM. For the same compound, the GI50 [4] was 8.27 µM, the TGI [4] was greater than 100 µM and the GI50 [5] was 2.62 µM. It also gave a TGI [5] of 20.3 µM, a GI50 [6] of 4.67 µM and a TGI [6] greater than 100 µM. It also gave a GI50 [7] of 3.51 µM, a TGI [7] of 57.6 µM and a GI50 [8] of 5.31 µM. It also gave a TGI [8] of 36.1 µM, a GI50 [9] of 3.45 µM and a TGI [9] greater than 100 µM. For the same compound, the GI50 [10] was 3.42 µM and the TGI [10] was greater than 100 µM.
